For data set [1] the following is noted: 14-membered ring.

Structures are written as SMILES. Like-named read-outs stand apart in the source and are kept apart here.

Where the note is “from CC(C)(C)OC(=O)N1CC[C@H](Nc2cnc3ccc(OCc4ccccc4)c(O)c3c2)C[C@H]1C(=O)NCC(F)CO, ether bond, PPh3 / di-tert-butyl azodicarboxylate, toluene, 4.76 mM, 25.0 °C, 1.0 h”, `CC(C)(C)OC(=O)N1CC[C@H]2C[C@H]1C(=O)NCC(F)COc1c(OCc3ccccc3)ccc3ncc(cc13)N2` (stereo partly drawn) yielded a ring closure, yield of all isomers of 67%. This compound also returned a ring closure, isolated yield in data set [1] (from CC(C)(C)OC(=O)N1CC[C@H](Nc2cnc3ccc(OCc4ccccc4)c(O)c3c2)C[C@H]1C(=O)NCC(F)CO, ether bond, PPh3/DTBAD, toluene, 4.84 mM, 25.0 °C, 1.0 h) of 67%.

Take `CC(C)(C)OC(=O)N1CC[C@H]2C[C@H]1C(=O)NCCCOc1c(Br)ccc3ncc(nc13)N2`: the ring closure, yield of all isomers by setting is: (from CC(C)(C)OC(=O)N1CC[C@H](Nc2cnc3ccc(Br)c(O)c3n2)C[C@H]1C(=O)NCCCO, ether bond, PPh3 / di-tert-butyl azodicarboxylate, tetrahydrofuran, 4.91 mM, 25.0 °C, 12.0 h) 61%; (from CC(C)(C)OC(=O)N1CC[C@H](Nc2cnc3ccc(Br)c(O)c3n2)C[C@H]1C(=O)NCCCO, ether bond, PPh3 / di-tert-butyl azodicarboxylate, tetrahydrofuran, 4.92 mM, 25.0 °C, 2.0 h) 70%. Besides, the ring closure, isolated yield in data set [1] (from CC(C)(C)OC(=O)N1CC[C@H](Nc2cnc3ccc(Br)c(O)c3n2)C[C@H]1C(=O)NCCCO, ether bond, PPh3/DTBAD, THF, 5.0 mM, 25.0 °C, 2.0 h) worked out at 70%; in data set [1] (from CC(C)(C)OC(=O)N1CC[C@H](Nc2cnc3ccc(Br)c(O)c3n2)C[C@H]1C(=O)NCCCO, ether bond, PPh3/DTBAD, THF, 5.0 mM, 25.0 °C, 12.0 h) it was 61%.

In the case of `CC(C)(C)OC(=O)N1CC[C@H]2C[C@H]1C(=O)NCCCOc1c(OCc3ccccc3)ccc3ncc(cc13)O2`, the ring closure, isolated yield in data set [1] (from CC(C)(C)OC(=O)N1CC[C@@H](O)C[C@H]1C(=O)NCCCOc1c(OCc2ccccc2)ccc2ncc(O)cc12, ether bond, PPh3/DTBAD, toluene, 11.0 mM, 1.5 h) is 72%.

On to `CC(C)(C)OC(=O)N1CC[C@H]2C[C@H]1C(=O)OCCCOc1c(OCc3ccccc3)ccc3ncc(cc13)N2`, for which, where the note is “from CC(C)(C)OC(=O)N1CC[C@H](N)C[C@H]1C(=O)OCCCOc1c(OCc2ccccc2)ccc2ncc(Br)cc12, cn_pd bond, tBuXPhos Pd G3 / Cs2CO3, 1,4-dioxane, 98.8 mM, 120.0 °C, 72.0 h”, the ring closure, yield of all isomers worked out at 7%. In data set [1] (from CC(C)(C)OC(=O)N1CC[C@H](N)C[C@H]1C(=O)OCCCOc1c(OCc2ccccc2)ccc2ncc(Br)cc12, cn_pd bond, tBuXPhos Pd G3/Cs2CO3, 1,4-dioxane, 98.8 mM, 120.0 °C, 72.0 h), the ring closure, isolated yield was 7%.
